Reference: ChEMBL document CHEMBL3885861, “Open TG-GATES”

Species on record: Rattus norvegicus
Experiment: Open TG-GATES - Regimen: Single
Type: toxicity, organism-based, Sprague-Dawley
Parameters: regimen Single, gender Male, age 6 weeks
Details: in vivo, po, 0 mg/kg, route gavage, dose level Control; for APTT / Bas / Eos / Fbg / Hb / Ht / Lym / MCH / MCHC / MCV / Mono / Neu / PT / Plat / RBC / Ret / WBC: tissue Blood; for KIDNEY_L / KIDNEY_R / KIDNEY_TOTAL: tissue Kidney; for LIVER: tissue Liver; for A/G / ALP / ALT / AST / BUN / CRE / Ca / Cl / DBIL / GLC / IP / K / LDH / Na / PL / RALB / TBIL / TC / TG / TP / gamma-GTP: tissue Plasma

## CCSCC[C@H](N)C(=O)O [ETHIONINE]
3 h
  TERMINAL_BW: 218.5 g
  APTT: 19 s
  Bas: 0%
  Eos: 1%
  Fbg: 216.6 mg/dL
  Hb: 13.4 g/dL
  Ht: 39.8%
  Lym: 79.6%
  MCH: 21.1 pg
  MCHC: 33.5%
  MCV: 62.9 fL
  Mono: 3%
  Neu: 16.4%
  PT: 12.5 s
  Plat: 122 x10_4/uL
  RBC: 632.8 x10_4/ul
  Ret: 7.4%
  WBC: 83.3 x10_2/uL
  KIDNEY_L: 1 g
  KIDNEY_R: 1 g
  KIDNEY_TOTAL: 1.9 g
  LIVER: 10.3 g
  A/G: 1.6
  ALP: 974.2 IU/L
  ALT: 35.6 IU/L
  AST: 64.4 IU/L
  BUN: 11.6 mg/dL
  CRE: 0.4 mg/dL
  Ca: 10.6 mg/dL
  Cl: 100.6 meq/L
  DBIL: 0.066 mg/dL
  GLC: 196.6 mg/dL
  IP: 9.3 mg/dL
  K: 3.9 meq/L
  LDH: 172.8 IU/L
  Na: 140.2 meq/L
  PL: 136.8 mg/dL
  RALB: 3.3 g/dL
  TBIL: 0.1 mg/dL
  TC: 70.6 mg/dL
  TG: 80.8 mg/dL
  TP: 5.4 g/dL
  gamma-GTP: 1 IU/L
6 h
  TERMINAL_BW: 211.6 g
  APTT: 18.9 s
  Bas: 0%
  Eos: 1%
  Fbg: 229 mg/dL
  Hb: 13.6 g/dL
  Ht: 40%
  Lym: 81.8%
  MCH: 21.3 pg
  MCHC: 34.1%
  MCV: 62.5 fL
  Mono: 2.8%
  Neu: 13.2%
  PT: 12.8 s
  Plat: 111.7 x10_4/uL
  RBC: 640.6 x10_4/ul
  Ret: 6.9%
  WBC: 79.1 x10_2/uL
  KIDNEY_L: 1 g
  KIDNEY_R: 0.9 g
  KIDNEY_TOTAL: 1.9 g
  LIVER: 9 g
  A/G: 1.5
  ALP: 1036.8 IU/L
  ALT: 38.6 IU/L
  AST: 70.6 IU/L
  BUN: 10.6 mg/dL
  CRE: 0.4 mg/dL
  Ca: 10.4 mg/dL
  Cl: 102.4 meq/L
  DBIL: 0.076 mg/dL
  GLC: 196 mg/dL
  IP: 9.5 mg/dL
  K: 3.7 meq/L
  LDH: 189 IU/L
  Na: 140.6 meq/L
  PL: 145 mg/dL
  RALB: 3.3 g/dL
  TBIL: 0.1 mg/dL
  TC: 78 mg/dL
  TG: 88.6 mg/dL
  TP: 5.5 g/dL
  gamma-GTP: 1 IU/L
9 h
  TERMINAL_BW: 213.3 g
  APTT: 19 s
  Bas: 0%
  Eos: 1%
  Fbg: 224.8 mg/dL
  Hb: 13 g/dL
  Ht: 38.3%
  Lym: 76.8%
  MCH: 21.2 pg
  MCHC: 34%
  MCV: 62.4 fL
  Mono: 2.4%
  Neu: 19.2%
  PT: 13 s
  Plat: 123.8 x10_4/uL
  RBC: 615 x10_4/ul
  Ret: 6.9%
  WBC: 90.6 x10_2/uL
  KIDNEY_L: 1 g
  KIDNEY_R: 1 g
  KIDNEY_TOTAL: 1.9 g
  LIVER: 9.1 g
  A/G: 1.5
  ALP: 936 IU/L
  ALT: 31.2 IU/L
  AST: 63 IU/L
  BUN: 10 mg/dL
  CRE: 0.4 mg/dL
  Ca: 10.4 mg/dL
  Cl: 102.6 meq/L
  DBIL: 0.062 mg/dL
  GLC: 203.4 mg/dL
  IP: 9.4 mg/dL
  K: 3.6 meq/L
  LDH: 187.2 IU/L
  Na: 141.2 meq/L
  PL: 140 mg/dL
  RALB: 3.3 g/dL
  TBIL: 0.1 mg/dL
  TC: 79.6 mg/dL
  TG: 53.6 mg/dL
  TP: 5.5 g/dL
  gamma-GTP: 1 IU/L
24 h
  TERMINAL_BW: 228.7 g
  APTT: 20.7 s
  Bas: 0%
  Eos: 1%
  Fbg: 226 mg/dL
  Hb: 14 g/dL
  Ht: 41.5%
  Lym: 80.6%
  MCH: 21.8 pg
  MCHC: 33.8%
  MCV: 64.4 fL
  Mono: 2.6%
  Neu: 14.8%
  PT: 12.1 s
  Plat: 126 x10_4/uL
  RBC: 644.2 x10_4/ul
  Ret: 6.6%
  WBC: 105.3 x10_2/uL
  KIDNEY_L: 1 g
  KIDNEY_R: 1 g
  KIDNEY_TOTAL: 2 g
  LIVER: 11.1 g
  A/G: 1.5
  ALP: 936 IU/L
  ALT: 41 IU/L
  AST: 66.8 IU/L
  BUN: 14.4 mg/dL
  CRE: 0.4 mg/dL
  Ca: 10.7 mg/dL
  Cl: 102 meq/L
  DBIL: 0.096 mg/dL
  GLC: 211.6 mg/dL
  IP: 8.1 mg/dL
  K: 3.8 meq/L
  LDH: 183.8 IU/L
  Na: 140.2 meq/L
  PL: 156.6 mg/dL
  RALB: 3.4 g/dL
  TBIL: 0.1 mg/dL
  TC: 81 mg/dL
  TG: 99.2 mg/dL
  TP: 5.7 g/dL
  gamma-GTP: 1.2 IU/L
